From US20050065189A1, “Thiazole derivatives as cannabinoid receptor modulators” (SOLVAY PHARMACEUTICALS B.V., priority 2003, published 2005)
Where two headings read alike, the source gives them in different places.

What was measured:
[1] = target: T1, human cannabinoid CB1 receptor (Homo sapiens, UniProt P21554); test: In vitro affinity for human cannabinoid CB1 receptors ([3H]CP-55,940 radioligand binding, CHO cell membranes)
T1 construct: expressed in transfected cells; host or cells: Chinese hamster ovary (CHO) cells, membrane preparation
T1 sequence (P21554 whole entry): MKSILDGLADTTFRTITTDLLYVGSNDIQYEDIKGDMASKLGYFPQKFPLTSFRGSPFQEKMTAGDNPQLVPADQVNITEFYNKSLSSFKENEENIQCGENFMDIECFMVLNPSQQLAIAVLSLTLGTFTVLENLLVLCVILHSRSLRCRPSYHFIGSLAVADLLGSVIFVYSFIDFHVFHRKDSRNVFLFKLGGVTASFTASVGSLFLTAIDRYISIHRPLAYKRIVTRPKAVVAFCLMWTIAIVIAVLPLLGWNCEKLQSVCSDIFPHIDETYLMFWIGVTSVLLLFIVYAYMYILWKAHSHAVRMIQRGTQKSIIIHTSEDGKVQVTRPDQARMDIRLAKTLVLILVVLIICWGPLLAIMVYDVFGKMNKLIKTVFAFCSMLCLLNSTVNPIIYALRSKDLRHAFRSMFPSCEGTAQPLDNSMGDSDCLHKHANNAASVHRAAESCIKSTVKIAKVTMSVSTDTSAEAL
Experimental: In vitro Affinity for Human Cannabinoid CB1 Receptors
(§1) The affinity of the compounds of the invention for cannabinoid CB1 receptors can be determined using membrane preparations of Chinese hamster ovary (CHO) cells in which the human cannabinoid CB1 receptor is stably transfected in conjunction with [^3H]CP-55,940 as radioligand. After incubation of a freshly prepared cell membrane preparation with the [^3H]-ligand, with or without addition of compounds of the invention, separation of bound and free ligand is performed by filtration over glassfiber filters. Radioactivity on the filter is measured by liquid scintillation counting.

[2] = target: T2, human cannabinoid CB2 receptor (Homo sapiens, UniProt P34972); test: In vitro affinity for human cannabinoid CB2 receptors ([3H]CP-55,940 radioligand binding, CHO cell membranes)
T2 construct: expressed in transfected cells; host or cells: Chinese hamster ovary (CHO) cells, membrane preparation
T2 sequence (P34972 whole entry): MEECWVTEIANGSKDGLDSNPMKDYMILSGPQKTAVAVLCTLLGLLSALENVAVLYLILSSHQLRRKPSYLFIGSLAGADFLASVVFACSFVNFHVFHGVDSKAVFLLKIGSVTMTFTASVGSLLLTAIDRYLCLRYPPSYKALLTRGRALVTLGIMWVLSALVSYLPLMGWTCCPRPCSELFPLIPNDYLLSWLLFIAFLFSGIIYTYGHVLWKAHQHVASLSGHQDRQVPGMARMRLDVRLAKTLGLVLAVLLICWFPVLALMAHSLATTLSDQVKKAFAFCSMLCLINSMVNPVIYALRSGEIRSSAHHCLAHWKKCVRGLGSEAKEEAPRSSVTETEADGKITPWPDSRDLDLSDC
Experimental: In Vitro Affinity for Human Cannabinoid CB2 Receptors
as §1, with “CB2” for “CB1”

[3] = membranes of CHO cells stably transfected with human CB1, [3H]CP-55,940 radioligand, read-out: Receptor affinity Human CB1 pKi-value (converted)

Compound | Ki [1, 3] [nM] | Ki ([2]; membranes of CHO cells stably transfected with human CB2, [3H]CP-55,940 radioligand, read-out: Receptor affinity Human CB2 pKi-value (converted)) [nM] | Ki [1] [nM] | Ki [2] [nM]
CCCCC(=O)c1nc(-c2ccc(Cl)cc2Cl)c(-c2ccccc2)s1 [Example 1, 1-[4-(2,4-dichlorophenyl)-5-phenylthiazol-2-yl]pentan-1-one] | 251 | – | – | –
CCCCCCC(=O)c1nc(-c2ccccc2Cl)c(-c2ccccc2)s1 [Example 4] | 158 | – | – | –
CCCCCc1nc(C(=O)NC23CC4CC(CC(C4)C2)C3)sc1-c1ccccc1 [Example 9, N-(adamant-1-yl)-4-(n-pentyl)-5-phenylthiazole-2-carboxamide] | 15.8 | 7.94 | – | –
CCCCCc1nc(C(=O)NC2CCCCC2)sc1-c1ccccc1 [Example 11] | – | – | 251 | 20
